Assay results from US10800778B2 (Entasis Therapeutics Limited, priority 2016, dated 2020).
Where a name gives a salt, the structure may show the parent alone.

Key:
[1] = biological target: TEM-1 (Class A beta-lactamase) (Escherichia coli, UniProt P62593); assay: Inhibition of beta-lactamase enzymes (nitrocefin hydrolysis), TEM-1; assay type: biochemical; conditions: read-out: Class A TEM-1 60 min IC50, nitrocefin 100 μM
In short: (§1)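 Nitrocefin (100 μM) hydrolysis followed at 490 nm for 1 h in 0.1 M sodium phosphate pH 7.0, 10 mM NaHCO3, 0.005% Triton X-100, with 3-fold inhibitor dilutions from 100 μM to 62.7 pM. Progress curves fitted globally to give kinact/Ki or Ki; percent inhibition from best-fit absorbance fitted with Hill equation.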

[2] = biological target: OXA-48 (Class D beta-lactamase) (Klebsiella pneumoniae, UniProt Q6XEC0); assay: Inhibition of beta-lactamase enzymes (nitrocefin hydrolysis), OXA-48; assay type: biochemical; conditions: read-out: Class D OXA-48 60 min IC50, nitrocefin 100 μM
In short: as §1

[3] = system: C. freundii AmpC, TEM-1, CMY65; assay: MIC, CLSI broth microdilution, beta-lactam with or without BLI; assay type: cell-based
Procedure: (§2) The minimal inhibitory concentration (MIC) values against each organism and drug combination were determined using the Clinical and Laboratory Standards Institute guidelines (CLSI) broth microdilution methodology (CLSI M07-A10). The recommended quality control (QC) bacterial strains E. coli ATCC 25922, E. coli ATCC 35218 and Klebsiella pneumoniae ATCC 700603 were incorporated into each test according to the CLSI guidelines to assure that there was no variation between test dates (CLSI M100-S25). The MICs of these QC strains were within QC range on all test occasions. Drug containing plates were made using the master plate method. A cefpodoxime solution was prepared to 20× concentration and 2-fold serial dilutions were made in cation adjusted Mueller-Hinton Broth. Equal volumes of 20× examplar compounds at a fixed concentration were added to the master plate. 10 uL was stamped into daughter plates using a Tecan EVO robot. Organism suspensions were adjusted to a 0.5 McFarland standard and further diluted to yield a final inoculum between 3×10^5 and 7×10^5 colony-forming units (CFU)/mL. Bacterial inocula were made in sterile, cation adjusted Mueller-Hinton Broth (Beckton Dickinson). An inoculum volume of 1.1× concentration of 90 uL was added to wells (using a Tecan EVO robot). All inoculated microdilution plates were incubated in ambient air at 35° C. for 18-24 hours.
(§3) Following the procedure from Example 103, MICs were determined for several beta-lactams in presence of a fixed concentration (4 μg/mL) of exemplar compounds (Table 3) against 3 Enterobacteriaceae strains.

E. coli WT (ATCC 25922) = assay: as above; assay type: cell-based
Procedure: as §2, §3

[4] = system: Klebsiella pneumoniae SHV-18, OXA-2, OKP-6 (ATCC 700603); assay: as above; assay type: cell-based
Procedure: as §2, §3

[5] = Rat PK, intravenous and oral; assay type: in vivo, Sprague-Dawley rats
Procedure: Intravenous rat pharmacokinetics of exemplar compounds were determined in jugular vein cannulated Sprague-Dawley rats (n=3) (Harlan Laboratories, Indianapolis, Ind.) at a dose of 10 mg/kg. Compounds were dissolved and administered intravenously in 0.9% saline, pH 6.5 at a dose volume of 2 mL/kg. […] Oral pharmacokinetic studies were conducted with exemplar compounds at 10 mg/kg equivalents of carboxylic acids. Doses were dissolved and administered orally in 25:75 PEG400: water for injection, pH 4.5 at a dose volume of 10 mL/kg. […] Plasma samples were stored at −80° C. prior to bioanalysis.
Plasma samples were thawed on ice prior to processing. Samples (30 μL) were diluted and proteins precipitated with 180 μL of acetonitrile containing 0.1% formic acid and 250 ng/mL of carbutamide (N1-(butylcarbanoyl)-sulfanilamide, Sigma-Aldrich Catalog # S385433) as an internal standard. Samples were vortexed for 30 seconds, centrifuged at 3400 g for 10 minutes and the supernatant transferred to injection vials.
LC/MS/MS analysis was completed on an AB Sciex QTrap 6500 mass spectrometer in positive ionization mode, coupled to a Schimadzu Nexera LC system. A Waters Atlantis T3 (3 μm, 3.0×50 mm) column was used for chromatographic separation. Injection volume was […] The mobile phase consisted 0.1% formic acid in water (A) and 0.1% formic acid in acetonitrile (B), with a gradient of 2-98% B:A over two minutes.
Plasma concentration vs. time profiles following intravenous (IV) administration and oral (PO) administration of exemplar compounds were analyzed by non-compartment analysis using WinNonLin 6.4.

[6] = system: E. coli ARC2687 (AmpC, CTX-M-14); assay: Cefpodoxime MIC against clinical isolate E. coli ARC2687; assay type: cell-based
[7] = system: E. coli AmpC, OXA-1, CTX-M-15, TEM-1; assay: MIC, CLSI broth microdilution, cefpodoxime with or without BLI; assay type: cell-based; conditions: Escherichia coli, read-out: MIC of beta-lactam alone, heading: MIC of beta-lactam alone, no BLI
Procedure: as §2

[8] = Stability in pH 7.4 buffer (no enzyme); assay type: physicochemical; conditions: buffer, read-out: T1/2 pH 7.4 Buffer
In short: (§4)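 Esters at 10 μM incubated at 37 °C with 0.8 mg/mL S9 (human intestinal without PMSF, rat liver or rat intestinal) or no enzyme, in 100 mM HEPES pH 7.4; sampled 0–60 min. LC-MS/MS tracked ester and hydrolysed active; first-order T1/2 from ester disappearance.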

[9] = Stability/conversion of esters in rat intestinal S9; assay type: in vitro ADME; conditions: s9, pH 7.4, read-out: T1/2 Rat Intestinal S9
In short: as §4

[10] = Stability/conversion of esters in rat liver S9; assay type: in vitro ADME; conditions: s9, pH 7.4, read-out: T1/2 Rat Liver S9
In short: as §4

[11] = Stability/conversion of esters in human intestinal S9; assay type: in vitro ADME; conditions: s9, pH 7.4, read-out: T1/2 Human Intestinal S9
In short: as §4

[12] = Stability/conversion of esters in human liver S9; assay type: in vitro ADME; conditions: s9, pH 7.4, read-out: T1/2 Human Liver S9
In short: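 Ester test compounds (10 μM) were incubated at 37° C with human liver S9 at 0.8 mg/mL in 100 mM HEPES buffer, pH 7.4. Aliquots taken from 0 to 60 min were quenched in acetonitrile containing carbutamide internal standard, centrifuged, and analyzed by LC-MS/MS MRM; first-order half-lives came from loss of the parent ester.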

[13] = system: E. coli ARC2687 (AmpC, CTX-M-14); assay: Mouse neutropenic thigh infection model, oral efficacy of cefpodoxime proxetil with Example 35; assay type: in vivo
Procedure: The oral in vivo efficacy of Example 35 was evaluated in combination with cefpodoxime proxetil in a mouse neutropenic thigh infection model versus a relevant clinical isolate. […] CD-1 mice (Charles River, Wilmington US) were housed in shoebox type cages with contact bedding and acclimated to the facility for a minimum of 2 days prior to use. The animal room was maintained at 70° F., with 50+/−10% relative humidity and a 12-hour light/dark cycle. The study was conducted using an IACUC-approved protocol in accordance with Title 9 of the Code of Federal Regulations. Animals were rendered neutropenic with two intraperitoneal doses of cyclophosphamide (150 mg/kg—4 days and 100 mg/kg—1 day prior to infection (Gerber et al. (1983) J Infect Dis 147(5); 910-917)). Animals were infected via an intramuscular challenge of ˜1×10^6 CFU administered within 100 μL of 0.9% saline. The inoculum was prepared from a 25 mL overnight culture of E. coli ARC 2687 in tryptic soy broth media. Following an OD600 determination, the inoculum was diluted in 0.9% saline to a concentration of […] prior to inoculation into the left and right thigh. Oral therapy with cefpodoxime proxetil alone and in combination with Example 35 was initiated 2 hours post bacterial challenge. Doses were suspended in 0.5% HPMC/0.1% Tween 80 and administered by oral gavage at a dose volume of 10 mL/kg. A terminal endpoint was obtained at 24 hr to determine bacterial counts in thigh tissue (CFU/gm). Animals were ethically euthanized, thighs were asceptically removed, weighed and homogenized in 1 mL of saline. Bacterial burden enumeration of tissue homogenate was performed by serial dilution on tryptic soy agar plates which were incubated overnight at 37° C. prior to colony (CFU) counting. The lower limit of detection was ˜2.6 log10 CFU/gm of tissue.

[14] = system: E. coli ARC2687 (AmpC, CTX-M-14); assay: as above; assay type: in vivo; remark: listed apart in the source
[15] = BLI at fixed 4 μg/ml, K. pneumoniae ATCC 700603

OXA-48 (Class D beta-lactamase), sequence (Q6XEC0 whole entry, looked up, species assumed): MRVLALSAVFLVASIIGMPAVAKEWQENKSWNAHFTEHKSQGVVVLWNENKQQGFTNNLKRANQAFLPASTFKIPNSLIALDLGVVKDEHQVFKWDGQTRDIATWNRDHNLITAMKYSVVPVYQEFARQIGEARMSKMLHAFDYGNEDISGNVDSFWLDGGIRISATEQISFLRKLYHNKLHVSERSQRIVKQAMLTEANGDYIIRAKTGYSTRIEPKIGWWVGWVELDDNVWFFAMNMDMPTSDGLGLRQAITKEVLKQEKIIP
TEM-1 (Class A beta-lactamase), sequence (P62593 whole entry, looked up, species assumed): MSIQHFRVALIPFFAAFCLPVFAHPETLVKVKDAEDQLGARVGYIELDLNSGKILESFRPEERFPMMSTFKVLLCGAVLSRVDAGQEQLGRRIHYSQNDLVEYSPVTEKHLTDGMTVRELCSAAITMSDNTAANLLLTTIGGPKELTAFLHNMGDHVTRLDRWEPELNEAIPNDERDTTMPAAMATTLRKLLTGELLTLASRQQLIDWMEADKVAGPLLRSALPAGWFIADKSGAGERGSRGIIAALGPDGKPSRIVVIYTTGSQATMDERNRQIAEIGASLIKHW

In the case of CC1=C[C@@H](C(N)=O)N2C[C@@H]1N(O[C@H](F)C(=O)O)C2=O [Example 33, (2R)-2-(((2S,5R)-2-carbamoyl-4-methyl-7-oxo-1,6-diazabicyclo[3.2.1]oct-3-en-6-yl)oxy)-2-fluoroacetic acid lithium salt], the IC50 [1] is reported as 3.2 nM, the IC50 [2] is reported as 77 nM and the “MIC of cefixime in presence of BLI” value ([3]; BLI at fixed 4 μg/ml) is reported as ≤0.06 µg/mL. The “MIC of cefuroxime in presence of BLI” value ([3]; BLI at fixed 4 μg/ml) was <0.03125 µg/mL, the “MIC of faropenem in presence of BLI” value ([3]; BLI at fixed 4 μg/ml) was ≤0.06 µg/mL and the “MIC of tebipenem in presence of BLI” value ([3]; BLI at fixed 4 μg/ml) was ≤0.06 µg/mL. For the same compound, the “MIC of cefixime in presence of BLI” value (E. coli WT (ATCC 25922); BLI at fixed 4 μg/ml) was ≤0.06 µg/mL, the “MIC of cefuroxime in presence of BLI” value (E. coli WT (ATCC 25922); BLI at fixed 4 μg/ml) was <0.03125 µg/mL and the “MIC of faropenem in presence of BLI” value (E. coli WT (ATCC 25922); BLI at fixed 4 μg/ml) was ≤0.06 µg/mL. The “MIC of tebipenem in presence of BLI” value (E. coli WT (ATCC 25922); BLI at fixed 4 μg/ml) was ≤0.06 µg/mL, the “MIC of cefixime in presence of BLI” value [4, 15] was ≤0.06 µg/mL and the “MIC of cefuroxime in presence of BLI” value [4, 15] was 4 µg/mL. For the same compound, the “MIC of faropenem in presence of BLI” value [4, 15] was 0.5 µg/mL, the “MIC of tebipenem in presence of BLI” value [4, 15] was 0.125 µg/mL and the AUC ([5]; Sprague-Dawley, plasma, rat, IV 10 mg/kg, analyte = compound administered) was 26.3 µM·h. The “cefpodoxime MIC in combination with BLI” value ([6]; BLI at 4 μg/mL) was < 0.03 µg/mL.
In the case of COCC1=C(C(=O)O)N2C(=O)[C@@H](NC(=O)/C(=N\OC)c3csc(N)n3)[C@H]2SC1 [Cefpodoxime, reference compound], the MIC ([3]; Citrobacter freundii, read-out: MIC of beta-lactam alone, no BLI, heading: MIC of beta-lactam alone) is reported as > 64 µg/mL, the “MIC of beta-lactam alone” value ([3]; no BLI) is reported as >64 µg/mL and the MIC (E. coli WT (ATCC 25922); Escherichia coli, ATCC25922, no BLI, read-out: MIC of beta-lactam alone) is reported as 1 µg/mL. The MIC ([4]; Klebsiella pneumoniae, ATCC700603, no BLI, K. pneumoniae SHV-18, OXA-2, OKP-6 (ATCC 700603), read-out: MIC of beta-lactam alone) was 16 µg/mL, the MIC [7] was > 64 µg/mL and the MIC ([6]; Escherichia coli, cefpodoxime alone) was > 512 µg/mL.
Compound CC1=C[C@@H](C(N)=O)N2C[C@@H]1N(O[C@H](F)C(=O)OC(C)C)C2=O [Example 35, (2R)-isopropyl 2-(((2S,5R)-2-carbamoyl-4-methyl-7-oxo-1,6-diazabicyclo[3.2.1]oct-3-en-6-yl)oxy)-2-fluoroacetate] has a half-life at 10 μM [8] of 3.1 h, a half-life at 10 μM [9] of 4 h and a half-life at 10 μM [10] of 0.533 h. For the same compound, the half-life at 10 μM [11] was 2.72 h, the half-life at 10 μM [12] was 0.65 h and the “Circulating concentrations of the ester in plasma” value ([5]; rat plasma, LC/MS/MS) was “Rapid hydrolysis precluded satisfactory analysis of circulating concentrations”. For the same compound, the “maximal kill relative to initiation of therapy” value ([13]; 50 mg/kg cefpodoxime proxetil + 100 mg/kg Example 35 q6h, oral, 24 hr) was −0.75 log10 CFU/gm, the log10CFU/gm thigh ([13]; Example 35 alone 10 mg/kg PO/q6h, mouse neutropenic thigh, E. coli ARC2687) was 9.56 log10CFU/gm thigh and the “CFU Change from 26 hr” value ([13]; Example 35 alone 10 mg/kg PO/q6h, relative to 26 hr growth control) was −1.30 log10 CFU/gm. The “CFU Change from 2 hr” value ([13]; Example 35 alone 10 mg/kg PO/q6h, relative to initiation of therapy) was “+3.29 log10 CFU/gm”, the “growth of bacterial burden in thighs after 24 hours of therapy” value ([13]; Example 35 alone at 10 mg/kg q6h, oral, neutropenic CD-1 mice) was “greater than 3 log10 CFU/gm” and the “effect of increasing dose on bacterial burden” value ([13]; in combination with cefpodoxime proxetil 50 mg/kg q6h, oral) was “dose dependent reduction of bacterial burden”.
With C[C@@H](O)[C@H]1C(=O)N2C(C(=O)O)=C(S[C@@H]3CN[C@H](C(=O)N(C)C)C3)[C@H](C)[C@H]12 [Meropenem] the “reduction in CFU relative to initiation of therapy” value ([14]; 600 mg/kg q6h administered subcutaneously, positive control) was “over 1 log10”, the log10CFU/gm thigh ([14]; Meropenem 600 mg/kg SC/q6h, positive control, mouse neutropenic thigh, E. coli ARC2687) was 5.17 log10CFU/gm thigh and the “CFU Change from 26 hr” value ([14]; Meropenem 600 mg/kg SC/q6h, relative to 26 hr growth control) was −5.69 log10 CFU/gm. For the same compound, the “CFU Change from 2 hr” value ([14]; Meropenem 600 mg/kg SC/q6h, relative to initiation of therapy) was −1.10 log10 CFU/gm.
